According to patent publication EP1800684A1, “Novel alkyl phospholipid derivatives and uses thereof” (Zentaris GmbH, priority 2005, dated 2007):
≈ marks a conversion by molar mass, not a printed value. Like-named read-outs stand apart in the source and are kept apart here.

Assays:
[1] = tested on: Cryptocoocus neoformans (strain H99); experiment: Anti-fungal susceptibility test (microdilution), fungus F; type: cell-based
Experimental: (§1) The antifungal activities of the test compounds (compounds of the invention and known prior art compounds) were measured according to standard microdilution methods (Cryptococcus/Aspergillus: Ghannoum et al., Journal of Clinical Microbiology 1992, 30 (11): 2881-2886; Candida: Reference method for broth dilution susceptibility testing of yeast: proposed standard, NCCLS document M27-P, National Committee for Clinical Laboratory Standards 1992, Villanova, Pa).
(§2) A serial dilution series starting from 64 µg/mL test compound per well down to 0.125 µg/mL test compound per well was applied for each test compound on each fungus. The MIC of each compound was defined as the concentration which produces no visible growth after 48 hours (Candida) and 72 hours (Cryptococcus, Aspergillus) of culture at 35° C.
(§3) The following fungi were assessed: • A) Candida albicans (ATCC 10231) • B) Candida albicans (ATCC 90028) • C) Candida albicans (strain TS3, Shrikantha et al., Journal of Bacteriology 2000, 182(6):1580-1591) • D) Candida parapsilosis (ATCC 22019) • E) Cryptocoocus neoformans (ATCC 90112) • F) Cryptocoocus neoformans (strain H99; Ganendren et al., Antimicrobial Agents and Chemotherapy, 2004, 48(5):1561-1569) • G) Cryptocoocus gattii (ATCC 32608) • H) Aspergillus fumigatus (ATCC 204305) • I) Aspergillus fumigatus (strain 322-384)

[2] = tested on: Candida albicans (ATCC 90028); experiment: Anti-fungal susceptibility test (microdilution), fungus B; type: cell-based; conditions: Candida albicans, ATCC90028, no visible growth after 48 hours at 35° C, read-out: MIC
Experimental: as §1, §2, §3

[3] = tested on: Candida albicans (strain TS3); experiment: Anti-fungal susceptibility test (microdilution), fungus C; type: cell-based; conditions: Candida albicans, no visible growth after 48 hours at 35° C, read-out: MIC
Experimental: as §1, §2, §3

[4] = tested on: Aspergillus fumigatus (ATCC 204305); experiment: Anti-fungal susceptibility test (microdilution), fungus H; type: cell-based; conditions: Aspergillus fumigatus, ATCC204305, no visible growth after 72 hours at 35° C, read-out: MIC
Experimental: as §1, §2, §3

[5] = tested on: Candida albicans (ATCC 10231); experiment: Anti-fungal susceptibility test (microdilution), fungus A; type: cell-based; conditions: Candida albicans, ATCC10231, no visible growth after 48 hours at 35° C, read-out: MIC
Experimental: as §1, §2, §3

[6] = tested on: Cryptocoocus gattii (ATCC 32608); experiment: Anti-fungal susceptibility test (microdilution), fungus G; type: cell-based
Experimental: as §1, §2, §3

[7] = tested on: Cryptocoocus neoformans (ATCC 90112); experiment: Anti-fungal susceptibility test (microdilution), fungus E; type: cell-based
Experimental: as §1, §2, §3

[8] = tested on: Candida parapsilosis (ATCC 22019); experiment: Anti-fungal susceptibility test (microdilution), fungus D; type: cell-based; conditions: ATCC22019, no visible growth after 48 hours at 35° C, read-out: MIC
Experimental: as §1, §2, §3

[9] = tested on: Trypanosoma cruzi (Tulahuan-LACZ amstigotes in PEM); experiment: In vitro drug activity assay, protozoon A (amastigotes in murine peritoneal macrophages, CPRG readout); type: cell-based; conditions: infected macrophages exposed for 3 days
Experimental: Murine (CD1) peritoneal macrophages were harvested 24 hours after starch induction and dispensed into 96-well plates at a concentration of 4 x 10^5 mL. After 24 hours, the cells were infected with Trypanosoma cruzi Tulahuan LAC-Z amastigotes (grown and cultured according to Buckner et al., Infection and Immunity 1999, 67(1): 403-409). 24 hours later, the infected cells were exposed to the test compounds (compounds of the invention as well as known prior art compounds) for 3 days and 50 µL of 500 µM CPRG-1% Nonidet P-40 was added to each well. The plates were read after 2 to 5 hours at 570 nm (Buckner et al., Antimicrobial Agents and Chemotherapy 1996, 40(11): 2592-2597). ED50 values were calculated with Msxlfit (IDBS).
(§4) The following protozoa were assessed: • A) Trypanosoma cruzi (Tulahuan-LACZ amstigotes in PEM, Lorente SO et al., Antimicrobial agents and chemotherapy 2004, 48(8): 2937-2950; Buckner et al., Infection and Immunity 1999, 67(1): 403-409; Buckner et al., Antimicrobial Agents and Chemotherapy 1996, 40(11): 2592-2597) • B) Trypanosoma brucei rhodesiense (strain STIB900, Lorente SO et al., Antimicrobial agents and chemotherapy 2004, 48(8): 2937-2950; Habtemariam S, BMC Pharmacology 2003, 3:6) • C) Plasmodium falciparum (strain K1, Korsinczky M et al., Antimicrobial agents and chemotherapy 2000, 44(8): 2100-2108; Thaitong S and Beale GH, Trans. R. Soc. Trop. Med. Hyg. 1981, 75: 271-273; Trager W and Jensen JB, Science 1976, 193: 673-675) • D) Plasmodium falciparum (strain 3D7, Mu et al., PLoS Biology 2005, 3(10): e335)

[10] = tested on: Plasmodium falciparum (strain K1); experiment: In vitro drug susceptibility assay, protozoon C (3[H]-hypoxanthine method); type: cell-based
Experimental: (§5) Plasmodium falciparum strain K1 and strain 3D7 parasites were cultured according to Trager W and Jensen JB (Science 1976, 193: 673-675). In vitro drug susceptibility assays with the test compounds were carried out according to Korsinczky M et al. (Antimicrobial agents and chemotherapy 2000, 44(8): 2100-2108) and Fivelman QL et al. (Antimicrobial agents and chemotherapy 2004, 48(11): 4097-4102) using a ^3[H]-hypoxanthine radioisotope method. ED50 values were calculated with Msxlfit (IDBS).
as §4

[11] = tested on: Trypanosoma brucei rhodesiense (strain STIB900); experiment: In vitro drug activity assay, protozoon B (bloodstream form trypomastigotes, Alamar Blue); type: cell-based; conditions: incubated for 72 hours
Experimental: Trypanosoma brucei rhodesiense STIB900 bloodstream form trypomastigotes were maintained in HMI-18 medium (Hirumi H, Hirumi K, J Parasitol. 1989, 75(6):985-989) with 15% heat-inactivated fetal calf serum at 37°C, 5% CO2, humidified atmosphere. Trypomastigotes were washed and resuspended in fresh medium at a concentration of 2 x 10^5 mL. Test compounds were given to the trypomastigotes and plates were incubated for 72 hours at 37°C, 5% CO2, humidified atmosphere. At 72 hours the plates were assessed microscopically before Alamar Blue was added (Raz et al., Acta Trop. 1997, 68: 139-147). Plates were read after 5 to 6 hours at EX/EM 530/585 nm with a filter cutoff at 550 nm. ED50 values were calculated with Msxlfit (IDBS).
as §4

[12] = tested on: Aspergillus fumigatus (strain 322-384); experiment: Anti-fungal susceptibility test (microdilution), fungus I; type: cell-based; conditions: Aspergillus fumigatus, no visible growth after 72 hours at 35° C, read-out: MIC
Experimental: as §1, §2, §3

[13] = tested on: Plasmodium falciparum (strain 3D7); experiment: In vitro drug susceptibility assay, protozoon D (3[H]-hypoxanthine method); type: cell-based
Experimental: as §5, §4

Leishmaniasis = conditions: clinical phase III trials, parenteral; cited from earlier work

| SMILES | MIC ([1]; 72 h) [µg/mL] | MIC [2] [µg/mL] | MIC [3] [µg/mL] | MIC [4] [µg/mL] | MIC [5] [µg/mL] | MIC ([6]; 72 h) [µg/mL] | MIC ([7]; 72 h) [µg/mL] | MIC [8] [µg/mL] | ED50 (µg/mL) [9] | ED50 (µg/mL) [10] | ED50 (µg/mL) [11] | MIC [12] [µg/mL] | ED50 (µg/mL) [13] | MIC ([1]; fungus F, no visible growth after 72 hours at 35° C, read-out: MIC) [µg/mL] | MIC ([6]; fungus G, no visible growth after 72 hours at 35° C, read-out: MIC) [µg/mL] | MIC ([7]; fungus E, no visible growth after 72 hours at 35° C, read-out: MIC) [µg/mL] | efficient in % of the cases (Leishmaniasis) [%] |
| --- | --- | --- | --- | --- | --- | --- | --- | --- | --- | --- | --- | --- | --- | --- | --- | --- | --- |
| CCCCCCCCCCCCCCCCOP(=O)([O-])OCC[N+]12CCC(CC1)CC2 [Compound 3, Phosphoric acid 2-(1-aza-bicyclo[2.2.2]oct-1-yl)-ethyl ester hexadecyl ester] | 1 (≈ 2.18 µM) | 1 (≈ 2.18 µM) | 2 (≈ 4.35 µM) | 3 (≈ 6.53 µM) | 1 (≈ 2.18 µM) | 0.75 (≈ 1.63 µM) | 1.5 (≈ 3.26 µM) | 2 (≈ 4.35 µM) | 0,33 µg/mL | 8,03 µg/mL | 25,03 µg/mL | 2 (≈ 4.35 µM) | 2,25 µg/mL |  |  |  |  |
| CCCCCCCCCCCCCCCCCCOP(=O)([O-])OC1CC[N+](CC)(CC)CC1 [Compound 5, Phosphoric acid 1,1-diethyl-piperidin-4-yl ester octadecyl ester] |  | 2 (≈ 4.08 µM) | 2 (≈ 4.08 µM) | 6 (≈ 12.3 µM) | 2 (≈ 4.08 µM) |  |  | 3 (≈ 6.13 µM) | 1,43 µg/mL | 21,26 µg/mL | 14,20 µg/mL | 8 (≈ 16.3 µM) | 16,31 µg/mL | 2 (≈ 4.08 µM) | 0.75 (≈ 1.53 µM) | 1.5 (≈ 3.06 µM) |  |
| NC[C@@H]1O[C@H](O[C@H]2[C@@H](O)[C@H](O[C@@H]3[C@@H](O)[C@H](N)C[C@H](N)[C@H]3O[C@H]3O[C@H](CO)[C@@H](O)[C@H](O)[C@H]3N)O[C@@H]2CO)[C@H](N)[C@@H](O)[C@@H]1O [paromomycin] |  |  |  |  |  |  |  |  |  |  |  |  |  |  |  |  | 95 |
